Experimental data published in ChEMBL document CHEMBL1201862, “PubChem BioAssay data set” (2004).
“And” between values parts separate entries of the source, which are not always exact repeats. Equal entries are not always repeated.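 Five concentrations, 48 hours, 96-well plates. At the GI50, growth is halved.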 The source made the active and inactive calls. Cut-off read from the data, not from the text of the source: active = GI50 up to about 1.1 µM and inactive = higher.

Key:
Test in all cases: NCI-60 cell line screen, 48 h
786-0 = system: 786-0
ACHN = system: ACHN
CCRF-CEM = system: CCRF-CEM
HCC 2998 = system: HCC 2998
HCT-116 = system: HCT-116
HCT-15 = system: HCT-15
K562 = system: K562
KM12 = system: KM12
LOX IMVI = system: LOX IMVI
MOLT-4 = system: MOLT-4
NCI-H226 = system: NCI-H226
NCI-H23 = system: NCI-H23
OVCAR-8 = system: OVCAR-8
SF-268 = system: SF-268
SN12C = system: SN12C
SNB-75 = system: SNB-75
UO-31 = system: UO-31
MDA-MB-231 = system: MDA-MB-231

C[C@]12CCC[C@H](O)[C@H]1C[C@H](CO)CC2
GI50 (786-0): > 100 µM (inactive)
GI50 (ACHN): > 100 µM (inactive)
GI50 (CCRF-CEM): > 100 µM (inactive)
GI50 (HCC 2998): > 100 µM (inactive)
GI50 (HCT-116): > 100 µM (inactive)
GI50 (HCT-15): > 100 µM
GI50 (K562): > 100 µM (inactive)
GI50 (KM12): > 100 µM (inactive)
GI50 (LOX IMVI): > 100 µM (inactive)
GI50 (MOLT-4): > 100 µM (inactive)
GI50 (NCI-H226): > 100 µM (inactive)
GI50 (NCI-H23): > 100 µM (inactive)
GI50 (OVCAR-8): > 100 µM (inactive)
GI50 (SF-268): > 100 µM (inactive)
GI50 (SN12C): > 100 µM (inactive)
GI50 (SNB-75): > 100 µM (inactive)
GI50 (UO-31): > 100 µM (inactive)

COc1ccc(OC)c2c(C(=O)O)c(C(C)c3ccccc3)ccc12 (stereo unspecified)
GI50 (786-0): > 100 µM (inactive)
GI50 (ACHN): > 100 µM (inactive)
GI50 (CCRF-CEM): > 100 µM (inactive)
GI50 (HCC 2998): > 100 µM (inactive)
GI50 (HCT-116): > 100 µM (inactive)
GI50 (HCT-15): > 100 µM
GI50 (K562): > 100 µM (inactive)
GI50 (KM12): > 100 µM (inactive)
GI50 (LOX IMVI): > 100 µM (inactive)
GI50 (MOLT-4): > 100 µM (inactive)
GI50 (NCI-H226): > 100 µM (inactive)
GI50 (NCI-H23): > 100 µM (inactive)
GI50 (OVCAR-8): > 100 µM (inactive)
GI50 (SF-268): > 100 µM (inactive)
GI50 (SN12C): > 100 µM (inactive)
GI50 (SNB-75): > 100 µM (inactive)
GI50 (UO-31): > 100 µM (inactive)

CCC1CN2CCc3cc(OC)c(OC)cc3C2CC1CC1c2cc(OC)c(OC)cc2CCN1C(=O)C1CCCN1 (stereo unspecified)
GI50 (786-0): 17.1 µM (inactive)
GI50 (ACHN): 28.7 µM (inactive)
GI50 (CCRF-CEM): 26.1 µM (inactive)
GI50 (HCC 2998): 23.9 µM (inactive)
GI50 (HCT-116): 19.5 µM (inactive)
GI50 (HCT-15): 31.7 µM
GI50 (K562): 20.5 µM (inactive)
GI50 (KM12): 35.2 µM (inactive)
GI50 (LOX IMVI): 24.9 µM (inactive)
GI50 (MOLT-4): 32.4 µM (inactive)
GI50 (NCI-H226): 31.3 µM (inactive)
GI50 (NCI-H23): 32.5 µM (inactive)
GI50 (OVCAR-8): 38.8 µM (inactive)
GI50 (SF-268): 32.8 µM (inactive)
GI50 (SN12C): 37.5 µM (inactive)
GI50 (SNB-75): 26 µM (inactive)
GI50 (UO-31): 21.5 µM (inactive)

COc1ccc2oc3cccc(NCCN(C)C)c3c(=O)c2c1
GI50 (786-0): 10.9 µM (inactive)
GI50 (ACHN): 10.5 µM (inactive)
GI50 (CCRF-CEM): 11.9 µM (inactive)
GI50 (HCC 2998): 8.65 µM (inactive)
GI50 (HCT-116): 7.01 µM (inactive)
GI50 (HCT-15): 13.7 µM
GI50 (K562): 9.35 µM (inactive)
GI50 (KM12): 13.1 µM (inactive)
GI50 (LOX IMVI): 10.6 µM (inactive)
GI50 (MOLT-4): 4.01 µM (inactive)
GI50 (NCI-H226): 16.2 µM (inactive)
GI50 (NCI-H23): 17.7 µM (inactive)
GI50 (OVCAR-8): 11.1 µM (inactive)
GI50 (SF-268): 13.3 µM (inactive)
GI50 (SN12C): 11 µM (inactive)
GI50 (SNB-75): 15.3 µM (inactive)
GI50 (UO-31): 8.3 µM (inactive)

COC(=O)C(C(=O)C(=O)Nc1ccc(Br)cc1)c1nc2ccc(Cl)cc2nc1O (stereo unspecified)
GI50 (786-0): > 100 µM (inactive)
GI50 (ACHN): > 91.8 µM (inactive)
GI50 (CCRF-CEM): > 90.2 µM (inactive)
GI50 (HCC 2998): > 100 µM (inactive)
GI50 (HCT-116): > 100 µM (inactive)
GI50 (HCT-15): > 41.2 µM
GI50 (K562): > 67.8 µM (inactive)
GI50 (KM12): > 66.5 µM (inactive)
GI50 (LOX IMVI): > 76.7 µM (inactive)
GI50 (MOLT-4): 80.7 µM (inactive)
GI50 (NCI-H226): 61 µM (inactive)
GI50 (NCI-H23): > 100 µM (inactive)
GI50 (OVCAR-8): > 100 µM (inactive)
GI50 (SF-268): > 100 µM (inactive)
GI50 (SN12C): > 100 µM (inactive)
GI50 (SNB-75): 81.7 µM (inactive)
GI50 (UO-31): > 82.4 µM (inactive)

O=C(O)/C(Cl)=C(\Cl)C(=O)Nc1ccc(Cl)c(Cl)c1Cl
GI50 (786-0): 18.2 µM (inactive)
GI50 (ACHN): 18.1 µM (inactive)
GI50 (CCRF-CEM): 37.2 µM (inactive)
GI50 (HCC 2998): 18.9 µM (inactive)
GI50 (HCT-116): 11.8 µM (inactive)
GI50 (HCT-15): 19.4 µM
GI50 (K562): 28 µM (inactive)
GI50 (KM12): 19.4 µM (inactive)
GI50 (LOX IMVI): 17.4 µM (inactive)
GI50 (MOLT-4): 23.8 µM (inactive)
GI50 (NCI-H226): 17.5 µM (inactive)
GI50 (NCI-H23): 18.7 µM (inactive)
GI50 (SF-268): 25 µM (inactive)
GI50 (SN12C): 20.9 µM (inactive)
GI50 (SNB-75): 18.8 µM (inactive)
GI50 (UO-31): 16.3 µM (inactive)

CC(C)(C)C1=CC(=NNC(=S)NCc2ccccc2)C=C(C(C)(C)C)C1=O
GI50 (786-0): 55.6 µM (inactive)
GI50 (ACHN): 67.1 µM (inactive)
GI50 (CCRF-CEM): 52.1 µM (inactive)
GI50 (HCC 2998): 53.7 µM (inactive)
GI50 (HCT-116): 60.5 µM (inactive)
GI50 (HCT-15): > 100 µM
GI50 (K562): 83 µM (inactive)
GI50 (LOX IMVI): 73.8 µM (inactive)
GI50 (MOLT-4): 66.1 µM (inactive)
GI50 (NCI-H226): 78.5 µM (inactive)
GI50 (NCI-H23): 64 µM (inactive)
GI50 (OVCAR-8): > 100 µM (inactive)
GI50 (SF-268): 87.3 µM (inactive)
GI50 (SN12C): 92.5 µM (inactive)
GI50 (SNB-75): 27.9 µM (inactive)
GI50 (UO-31): 52 µM (inactive)

CCOC(OCC)C(CC)[Se]c1ccccc1 (stereo unspecified)
GI50 (786-0): 19.1 µM (inactive)
GI50 (ACHN): > 100 µM (inactive)
GI50 (CCRF-CEM): 16.3 µM (inactive)
GI50 (HCC 2998): 35.2 µM (inactive)
GI50 (HCT-116): 31.8 µM (inactive)
GI50 (HCT-15): 15.5 µM
GI50 (K562): > 100 µM (inactive)
GI50 (KM12): > 100 µM (inactive)
GI50 (LOX IMVI): 5.82 µM (inactive)
GI50 (MOLT-4): 37.2 µM (inactive)
GI50 (NCI-H226): 27.3 µM (inactive)
GI50 (NCI-H23): 7.13 µM (inactive)
GI50 (OVCAR-8): > 100 µM (inactive)
GI50 (SF-268): 72.6 µM (inactive)
GI50 (SN12C): 41 µM (inactive)
GI50 (SNB-75): 35.3 µM (inactive)
GI50 (UO-31): > 100 µM (inactive)

CC(N)C(=O)OCN1C(=O)C2C3C=CC(C2C1=O)C1C2C(=O)N(COC(=O)C(C)N)C(=O)C2C31 (stereo unspecified)
GI50 (786-0): 20.8 µM (inactive)
GI50 (ACHN): 27.7 µM (inactive)
GI50 (CCRF-CEM): 23.1 µM (inactive)
GI50 (HCC 2998): 43.1 µM (inactive)
GI50 (HCT-116): 24.2 µM (inactive)
GI50 (HCT-15): 19.9 µM
GI50 (K562): 24.8 µM (inactive)
GI50 (KM12): 20.3 µM (inactive)
GI50 (LOX IMVI): 18.5 µM (inactive)
GI50 (MOLT-4): 21.5 µM (inactive)
GI50 (NCI-H226): 39.8 µM (inactive)
GI50 (NCI-H23): 22.1 µM (inactive)
GI50 (OVCAR-8): 22.1 µM (inactive)
GI50 (SF-268): 21.3 µM (inactive)
GI50 (SN12C): 25.6 µM (inactive)
GI50 (SNB-75): 25.6 µM (inactive)
GI50 (UO-31): 56.4 µM (inactive)

C=CCc1cc2cccc(OC)c2oc1=O
GI50 (786-0): > 100 µM (inactive)
GI50 (ACHN): > 100 µM (inactive)
GI50 (CCRF-CEM): 45.2 µM (inactive)
GI50 (HCC 2998): > 100 µM (inactive)
GI50 (HCT-116): > 100 µM (inactive)
GI50 (HCT-15): > 100 µM
GI50 (K562): 75.5 µM (inactive)
GI50 (KM12): > 100 µM (inactive)
GI50 (LOX IMVI): 93.3 µM (inactive)
GI50 (MOLT-4): 63.4 µM (inactive)
GI50 (NCI-H226): > 100 µM (inactive)
GI50 (NCI-H23): > 100 µM (inactive)
GI50 (OVCAR-8): > 100 µM (inactive)
GI50 (SF-268): > 100 µM (inactive)
GI50 (SN12C): > 100 µM (inactive)
GI50 (SNB-75): 87.5 µM (inactive)
GI50 (UO-31): 1.19 µM (inactive)

COc1cc2c(c(OC)c1OC)-c1ccc(SC)c(=O)cc1[C@@H](NC(=O)c1ccc(Cl)cc1)CC2
GI50 (786-0): < 0.01 µM (active)
GI50 (ACHN): < 0.01 µM (active)
GI50 (CCRF-CEM): < 0.01 µM (active)
GI50 (HCC 2998): < 0.01 µM (active)
GI50 (HCT-116): < 0.01 µM (active)
GI50 (HCT-15): < 0.01 µM
GI50 (K562): < 0.01 µM (active)
GI50 (LOX IMVI): < 0.01 µM (active)
GI50 (MOLT-4): < 0.01 µM (active)
GI50 (NCI-H226): < 0.01 µM (active)
GI50 (NCI-H23): < 0.01 µM (active)
GI50 (OVCAR-8): < 0.01 µM (active)
GI50 (SF-268): < 0.01 µM (active)
GI50 (SN12C): < 0.01 µM (active)
GI50 (SNB-75): 2.16 µM (inactive)
GI50 (UO-31): 0.0196 µM (active)

COc1ccc2cc1Oc1ccc(cc1)C[C@H]1c3cc(c(OC)cc3CCN1C)Oc1c(OC)c(OC)cc3c1[C@H](C2)N(C)CC3 [FANCHININ]
GI50 (786-0): 3.05 µM (inactive) and 43.5 µM (inactive)
GI50 (ACHN): 7.93 µM (inactive) and 17.1 µM (inactive)
GI50 (CCRF-CEM): 33 µM (inactive) and 3.54 µM (inactive)
GI50 (HCC 2998): 1.71 µM (inactive)
GI50 (HCT-116): 4.5 µM (inactive) and 50.5 µM (inactive)
GI50 (HCT-15): 7.78 µM
GI50 (K562): 41.2 µM (inactive) and 1.57 µM (inactive)
GI50 (MDA-MB-231): 5.64 µM (inactive) and 19.8 µM (inactive)
GI50 (NCI-H23): 77.4 µM (inactive) and 8.43 µM (inactive)
GI50 (OVCAR-8): 8.38 µM (inactive) and 53.7 µM (inactive)
GI50 (SF-268): 74.6 µM (inactive) and 8.05 µM (inactive)
GI50 (SNB-75): 43.2 µM (inactive) and 6.55 µM (inactive)
